Source: ChEMBL document CHEMBL4715697, “Synthesis and biological activity of benzamide DNA minor groove binders” (2016)

Key:
Type in all cases: functional
[1] = system: EKVX; experiment: Growth inhibition of human EKVX cells assessed as cell growth at 0.01 uM incubated for 48 hrs by sulforhodamine B assay relative to control; details: read-out: Activity
[2] = system: NCI-H322M; experiment: Growth inhibition of human NCI-H322M cells assessed as cell growth at 0.01 uM incubated for 48 hrs by sulforhodamine B assay relative to control; details: read-out: Activity
[3] = system: HCT-116; experiment: Growth inhibition of human HCT-116 cells assessed as cell growth at 0.01 uM incubated for 48 hrs by sulforhodamine B assay relative to control; details: read-out: Activity
[4] = system: SK-MEL-5; experiment: Growth inhibition of human SK-MEL-5 cells assessed as cell growth at 0.01 uM incubated for 48 hrs by sulforhodamine B assay relative to control; details: read-out: Activity
[5] = system: UACC-62; experiment: Growth inhibition of human UACC-62 cells assessed as cell growth at 0.01 uM incubated for 48 hrs by sulforhodamine B assay relative to control; details: read-out: Activity
[6] = system: MOLT-4; experiment: Growth inhibition of human MOLT-4 cells assessed as cell growth at 0.1 uM incubated for 48 hrs by sulforhodamine B assay relative to control; details: read-out: Activity
[7] = system: SR; experiment: Growth inhibition of human SR cells assessed as cell growth at 0.1 uM incubated for 48 hrs by sulforhodamine B assay relative to control; details: read-out: Activity
[8] = system: SF-295; experiment: Growth inhibition of human SF-295 cells assessed as cell growth at 0.1 uM incubated for 48 hrs by sulforhodamine B assay relative to control; details: read-out: Activity
[9] = system: SF-539; experiment: Growth inhibition of human SF-539 cells assessed as cell growth at 0.1 uM incubated for 48 hrs by sulforhodamine B assay relative to control; details: read-out: Activity
[10] = system: OVCAR-8; experiment: Growth inhibition of human OVCAR-8 cells assessed as cell growth at 0.1 uM incubated for 48 hrs by sulforhodamine B assay relative to control; details: read-out: Activity
[11] = system: UO-31; experiment: Growth inhibition of human UO-31 cells assessed as cell growth at 0.1 uM incubated for 48 hrs by sulforhodamine B assay relative to control; details: read-out: Activity
[12] = system: HL-60(TB); experiment: Growth inhibition of human HL-60(TB) cells assessed as cell growth at 1 uM incubated for 48 hrs by sulforhodamine B assay relative to control; details: read-out: Activity
[13] = system: HOP-62; experiment: Growth inhibition of human HOP-62 cells assessed as cell growth at 1 uM incubated for 48 hrs by sulforhodamine B assay relative to control; details: read-out: Activity
[14] = system: CAKI-1; experiment: Growth inhibition of human CAKI-1 cells assessed as cell growth at 1 uM incubated for 48 hrs by sulforhodamine B assay relative to control; details: read-out: Activity
[15] = system: SN12C; experiment: Growth inhibition of human SN12C cells assessed as cell growth at 1 uM incubated for 48 hrs by sulforhodamine B assay relative to control; details: read-out: Activity
[16] = system: PC-3; experiment: Growth inhibition of human PC-3 cells assessed as cell growth at 1 uM incubated for 48 hrs by sulforhodamine B assay relative to control; details: read-out: Activity
[17] = system: EKVX; experiment: Growth inhibition of human EKVX cells assessed as cell growth at 100 uM incubated for 48 hrs by sulforhodamine B assay relative to control; details: read-out: Activity
[18] = system: NCI-H226; experiment: Growth inhibition of human NCI-H226 cells assessed as cell growth at 100 uM incubated for 48 hrs by sulforhodamine B assay relative to control; details: read-out: Activity
[19] = system: LOX IMVI; experiment: Growth inhibition of human LOX IMVI cells assessed as cell growth at 100 uM incubated for 48 hrs by sulforhodamine B assay relative to control; details: read-out: Activity
[20] = system: Malme-3M; experiment: Growth inhibition of human Malme-3M cells assessed as cell growth at 100 uM incubated for 48 hrs by sulforhodamine B assay relative to control; details: read-out: Activity
[21] = system: SK-MEL-2; experiment: Growth inhibition of human SK-MEL-2 cells assessed as cell growth at 100 uM incubated for 48 hrs by sulforhodamine B assay relative to control; details: read-out: Activity
[22] = system: 786-0; experiment: Growth inhibition of human 786-0 cells assessed as cell growth at 100 uM incubated for 48 hrs by sulforhodamine B assay relative to control; details: read-out: Activity
[23] = system: SN12C; experiment: Growth inhibition of human SN12C cells assessed as cell growth at 100 uM incubated for 48 hrs by sulforhodamine B assay relative to control; details: read-out: Activity
[24] = system: MDA-MB-231; experiment: Growth inhibition of human MDA-MB-231 cells assessed as cell growth at 100 uM incubated for 48 hrs by sulforhodamine B assay relative to control; details: read-out: Activity
[25] = system: Hs-578T; experiment: Growth inhibition of human Hs-578T cells assessed as cell growth at 100 uM incubated for 48 hrs by sulforhodamine B assay relative to control; details: read-out: Activity
[26] = system: BT-549; experiment: Growth inhibition of human BT-549 cells assessed as cell growth at 100 uM incubated for 48 hrs by sulforhodamine B assay relative to control; details: read-out: Activity
[27] = system: CCRF-CEM; experiment: Growth inhibition of human CCRF-CEM cells incubated for 48 hrs by sulforhodamine B assay
[28] = system: SR; experiment: Growth inhibition of human SR cells incubated for 48 hrs by sulforhodamine B assay
[29] = system: COLO 205; experiment: Growth inhibition of human COLO 205 cells incubated for 48 hrs by sulforhodamine B assay
[30] = system: HCC 2998; experiment: Growth inhibition of human HCC 2998 cells incubated for 48 hrs by sulforhodamine B assay
[31] = system: HCT-15; experiment: Growth inhibition of human HCT-15 cells incubated for 48 hrs by sulforhodamine B assay
[32] = system: SF-539; experiment: Growth inhibition of human SF-539 cells incubated for 48 hrs by sulforhodamine B assay
[33] = system: SNB-75; experiment: Growth inhibition of human SNB-75 cells incubated for 48 hrs by sulforhodamine B assay
[34] = system: UACC-62; experiment: Growth inhibition of human UACC-62 cells incubated for 48 hrs by sulforhodamine B assay
[35] = read-out: LC50 (the source's name)
[36] = read-out: pLC50 (the source's name) (converted)

CC(=O)Nc1cc(CO[Si](C)(C)C(C)(C)C)cc(NC(=O)c2ccc(C(=O)Nc3cccc(NC(=O)CCCN(C)C)c3)cc2)c1
101%: growth at 0.01 µM [1]
87%: growth at 100 µM [18] | growth at 100 µM [21]
73%: growth at 1 µM [14]
102%: growth at 0.01 µM [2]
82%: growth at 100 µM [17]
84%: growth at 100 µM [19]
86%: growth at 1 µM [12] | growth at 100 µM [26]
100%: growth at 1 µM [15]
91%: growth at 0.1 µM [6] | growth at 100 µM [23]
105%: growth at 1 µM [16]
33%: growth at 100 µM [20]
97%: growth at 0.1 µM [10] | growth at 1 µM [13]
104%: growth at 0.01 µM [3]
96%: growth at 0.01 µM [5] | growth at 100 µM [24]
> 75 µM: GI50 ([27]; read-out: GI50) | CC50 [27, 35] | TGI ([27]; read-out: TGI) | GI50 ([28]; read-out: GI50) | CC50 [28, 35] | TGI ([28]; read-out: TGI) | GI50 ([29]; read-out: GI50) | LC50 ([29]; read-out: LC50) | TGI ([29]; read-out: TGI) | GI50 ([30]; read-out: GI50) | CC50 [30, 35] | TGI ([30]; read-out: TGI) | GI50 ([31]; read-out: GI50) | CC50 [31, 35] | TGI ([31]; read-out: TGI) | GI50 ([32]; read-out: GI50) | CC50 [32, 35] | TGI ([32]; read-out: TGI) | GI50 ([33]; read-out: GI50) | LC50 ([33]; read-out: LC50) | TGI ([33]; read-out: TGI) | GI50 ([34]; read-out: GI50) | CC50 [34, 35] | TGI ([34]; read-out: TGI)
> 75.9 µM: GI50 ([27]; read-out: pGI50 (converted)) | CC50 [27, 36] | TGI ([27]; read-out: pTGI (converted)) | GI50 ([28]; read-out: pGI50 (converted)) | CC50 [28, 36] | TGI ([28]; read-out: pTGI) | GI50 ([29]; read-out: pGI50 (converted)) | LC50 ([29]; read-out: pLC50 (converted)) | TGI ([29]; read-out: pTGI) | GI50 ([30]; read-out: pGI50 (converted)) | CC50 [30, 36] | TGI ([30]; read-out: pTGI) | GI50 ([31]; read-out: pGI50 (converted)) | CC50 [31, 36] | TGI ([31]; read-out: pTGI) | GI50 ([32]; read-out: pGI50 (converted)) | CC50 [32, 36] | TGI ([32]; read-out: pTGI) | GI50 ([33]; read-out: pGI50 (converted)) | LC50 ([33]; read-out: pLC50 (converted)) | TGI ([33]; read-out: pTGI) | GI50 ([34]; read-out: pGI50 (converted)) | CC50 [34, 36] | TGI ([34]; read-out: pTGI)
88%: growth at 100 µM [22]
94%: growth at 0.1 µM [11]
123%: growth at 0.1 µM [8]
89%: growth at 100 µM [25]
103%: growth at 0.1 µM [7]
98%: growth at 0.01 µM [4] | growth at 0.1 µM [9]

CC(=O)Nc1cc(CCl)cc(NC(=O)c2ccc(C(=O)Nc3cccc(NC(=O)CCCN(C)C)c3)cc2)c1
103%: growth at 0.1 µM [9] | growth at 1 µM [16]
109%: growth at 0.01 µM [3]
75%: growth at 100 µM [19]
80%: growth at 100 µM [20]
97%: growth at 0.1 µM [10] | growth at 0.1 µM [11]
78.2 µM: CC50 [27, 35]
41.7 µM: TGI ([27]; read-out: pTGI (converted))
74%: growth at 0.1 µM [8] | growth at 100 µM [24]
107%: growth at 0.1 µM [7] | growth at 100 µM [25]
106%: growth at 0.01 µM [2]
> 100 µM: GI50 ([28]; read-out: GI50) | CC50 [28, 35] | TGI ([28]; read-out: TGI) | GI50 ([28]; read-out: pGI50 (converted)) | CC50 [28, 36] | TGI ([28]; read-out: pTGI) | GI50 ([29]; read-out: GI50) | LC50 ([29]; read-out: LC50) | TGI ([29]; read-out: TGI) | GI50 ([29]; read-out: pGI50 (converted)) | LC50 ([29]; read-out: pLC50 (converted)) | TGI ([29]; read-out: pTGI) | GI50 ([30]; read-out: GI50) | CC50 [30, 35] | TGI ([30]; read-out: TGI) | GI50 ([30]; read-out: pGI50 (converted)) | CC50 [30, 36] | TGI ([30]; read-out: pTGI) | GI50 ([31]; read-out: GI50) | CC50 [31, 35] | TGI ([31]; read-out: TGI) | GI50 ([31]; read-out: pGI50 (converted)) | CC50 [31, 36] | TGI ([31]; read-out: pTGI) | GI50 ([32]; read-out: GI50) | CC50 [32, 35] | TGI ([32]; read-out: TGI) | GI50 ([32]; read-out: pGI50 (converted)) | CC50 [32, 36] | TGI ([32]; read-out: pTGI) | GI50 ([33]; read-out: GI50) | LC50 ([33]; read-out: LC50) | TGI ([33]; read-out: TGI) | GI50 ([33]; read-out: pGI50 (converted)) | LC50 ([33]; read-out: pLC50 (converted)) | TGI ([33]; read-out: pTGI) | GI50 ([34]; read-out: GI50) | CC50 [34, 35] | TGI ([34]; read-out: TGI) | GI50 ([34]; read-out: pGI50 (converted)) | CC50 [34, 36] | TGI ([34]; read-out: pTGI)
99%: growth at 1 µM [12]
94%: growth at 100 µM [26]
87%: growth at 100 µM [18]
95%: growth at 0.1 µM [6] | growth at 1 µM [14]
96%: growth at 0.01 µM [4]
105%: growth at 1 µM [15]
100%: growth at 0.01 µM [5]
84%: growth at 100 µM [17]
102%: growth at 1 µM [13] | growth at 100 µM [23]
77.6 µM: CC50 [27, 36]
116%: growth at 100 µM [21]
93%: growth at 0.01 µM [1]
22.4 µM: GI50 ([27]; read-out: GI50) | GI50 ([27]; read-out: pGI50 (converted))
41.8 µM: TGI ([27]; read-out: TGI)
122%: growth at 100 µM [22]
